These results are taken from PubChem BioAssay (NCI).

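Protocol summary: plate cells (96-well), add compound at 5 concentrations, incubate 48 h, interpolate endpoints linearly. At the GI50, growth is halved. TGI: concentration producing complete growth inhibition.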

Test systems include SNB-75 CNS; KM12 colon; SF-268 CNS; NCI-H23 lung; HCT-116 colon; HOP-92 NSCLC; NCI-H522 lung; MDA-MB-435; U251 CNS; HT29 colon.
Common to all, as to assay: NCI-60 cell line screen, 48 h

As for `CC(C)N(CC(=O)O)CC(=O)O`, the TGI in the assay on SNB-75 CNS, in the assay on KM12 colon, in the assay with SF-268 CNS, in the assay with NCI-H23 lung, with HCT-116 colon and in the assay on HOP-92 NSCLC was over 100 µM in each case. In addition, the TGI in the assay with NCI-H522 lung, in the assay on MDA-MB-435, in the assay with U251 CNS and in the assay on HT29 colon was over 100 µM throughout.
For `CCCCCCCCCCCCCCCCCCN(C)CC(COC)OP(=O)([O-])OCC[N+](C)(C)C` (stereo unspecified), the TGI in the assay on SNB-75 CNS was 3.68 µM; in the assay on KM12 colon it was 1.62 µM; in the assay with SF-268 CNS it was 4.17 µM; with NCI-H23 lung, 11.7 µM; in the assay on HCT-116 colon, 11.8 µM; with HOP-92 NSCLC, 3.33 µM. Further, the TGI in the assay with NCI-H522 lung was determined as 4.22 µM; in the assay on MDA-MB-435, 17.4 µM; in the assay on U251 CNS, 2.44 µM; in the assay on HT29 colon it was 4.66 µM.
Regarding `CC1CC(C)(O)C2C3(C)CCCC2(COC3=O)C12CCC1(CCOC1=O)O2` (stereo unspecified), the TGI with SNB-75 CNS, with KM12 colon, in the assay on SF-268 CNS, in the assay on NCI-H23 lung, with HCT-116 colon and in the assay on HOP-92 NSCLC was over 250 µM throughout. The TGI in the assay on NCI-H522 lung, with U251 CNS and in the assay with HT29 colon was over 250 µM in each case.
Regarding `O=C1c2cc3c(cc2[C@@H]2C(O)[C@H]4O[C@H]4C4CCN1C42)OCO3` (stereo partly specified), the TGI in the assay with KM12 colon, with SF-268 CNS, with HCT-116 colon, in the assay with HOP-92 NSCLC, in the assay on NCI-H522 lung and in the assay with HT29 colon was over 37.5 µM in each case.
For `Cc1csc2nc(-c3cc([N+](=O)[O-])c(Cl)cc3Cl)c(/C=N/N=C(N)N)n12`, the TGI in the assay with KM12 colon turned out to be 32.4 µM; in the assay with SF-268 CNS, 39.7 µM; in the assay with NCI-H23 lung it was 33 µM; in the assay with HCT-116 colon, 39.5 µM; in the assay with HOP-92 NSCLC, 32.1 µM; in the assay with NCI-H522 lung it was 29.4 µM. The TGI in the assay on MDA-MB-435 worked out at 34.7 µM; in the assay with U251 CNS, 30.5 µM; in the assay on HT29 colon, 30.5 µM.
On to `Nc1[nH]c(=O)nc2c1cnn2COCCO`, for which the TGI in the assay on SNB-75 CNS was over 100 µM; in the assay with KM12 colon, over 100 µM; in the assay on SF-268 CNS it was over 100 µM; with NCI-H23 lung, 53.2 µM; in the assay with HCT-116 colon it was over 100 µM; in the assay with HOP-92 NSCLC, over 100 µM. The TGI in the assay with U251 CNS is 52.8 µM; in the assay on HT29 colon it was over 100 µM.
As for `CN(C)CCC(=O)[C@@]1(O)CC[C@H]2[C@@H]3CC=C4C[C@@H](O)CC[C@]4(C)[C@H]3CC[C@@]21C`, the TGI with SNB-75 CNS is 29.5 µM; in the assay on KM12 colon it was 45.3 µM; with SF-268 CNS it was 32.2 µM; in the assay on NCI-H23 lung, 56.1 µM; in the assay with HCT-116 colon it was 32.6 µM; in the assay on HOP-92 NSCLC it was 39.7 µM. The TGI with NCI-H522 lung was found to be 25.3 µM; in the assay with MDA-MB-435 it was 45.5 µM; in the assay with U251 CNS it was 31 µM; with HT29 colon it was 37.5 µM.
Regarding `c1ccc(-c2cc3nc4ccccc4nc3cc(-c3ccccc3)[nH][nH]2)cc1`, the TGI in the assay on SNB-75 CNS is 99.1 µM; in the assay on KM12 colon it was over 100 µM; with SF-268 CNS, over 100 µM; in the assay with NCI-H23 lung, over 100 µM; with HCT-116 colon, over 100 µM; in the assay on HOP-92 NSCLC, over 100 µM. Besides, the TGI in the assay on NCI-H522 lung, with MDA-MB-435, in the assay with U251 CNS and with HT29 colon was over 100 µM each time.
In the case of `CC(C)CC(N)C(=O)NC(CNC(CCC(N)=O)C(=O)NC(CC(C)C)C(=O)NC(CC(C)C)C(=O)O)Cc1ccc2ccccc2c1` (stereo unspecified), the TGI in the assay on SNB-75 CNS, with KM12 colon, with SF-268 CNS, in the assay on NCI-H23 lung, in the assay with HCT-116 colon and with HOP-92 NSCLC was over 10 µM in each case. Moreover, the TGI with MDA-MB-435, in the assay with U251 CNS and with HT29 colon was over 10 µM each time.
`CCn1c2ccccc2c2ccc(C3C4C(=O)N(c5cccc6ccccc56)C(=O)C4ON3C(C(N)=O)c3ccccc3)cc21` (stereo unspecified): the TGI in the assay on SNB-75 CNS, with KM12 colon, with SF-268 CNS, with NCI-H23 lung, in the assay with HCT-116 colon and with HOP-92 NSCLC was over 25 µM throughout. The TGI in the assay on NCI-H522 lung, in the assay on MDA-MB-435, in the assay on U251 CNS and with HT29 colon was over 25 µM throughout.
Regarding `C[C@@]12CC[C@@H](O)C[C@@H]1CC[C@H]1[C@H]2CC[C@@]2(C)[C@H](c3ccc(=O)oc3)CC[C@@]12O`, the GI50 with SNB-75 CNS is under 0.01 µM; with KM12 colon, under 0.0123 µM; in the assay with SF-268 CNS, under 0.01 µM; in the assay on NCI-H23 lung, under 0.01 µM; in the assay on HCT-116 colon, under 0.01 µM; with HOP-92 NSCLC, under 0.01 µM. The GI50 in the assay with NCI-H522 lung, with MDA-MB-435, in the assay on U251 CNS and in the assay with HT29 colon was under 0.01 µM in each case. Further, the TGI turned out to be 0.0263 µM with SNB-75 CNS; 0.153 µM with KM12 colon; 0.0344 µM with SF-268 CNS; 0.0226 µM in the assay with NCI-H23 lung; 0.0122 µM in the assay with HCT-116 colon; 0.0571 µM with HOP-92 NSCLC. For the same molecule, the TGI was 0.021 µM in the assay with NCI-H522 lung, 0.0587 µM in the assay with MDA-MB-435, 0.0363 µM in the assay on U251 CNS and 0.0467 µM with HT29 colon.
